Measurements: patent US20230233569A1 (Revolution Medicines, Inc., priority 2020, published 2023)
Like-named read-outs stand apart in the source and are kept apart here.

Legend:
Experiment in all cases: Ras-Raf disruption / FRET / MOA assay (BRAF RBD)
Type in all cases: biochemical
KRAS G12D = KRAS G12D (Homo sapiens, UniProt P01116+P62937, G12D); conditions: with Cyclophilin A
Procedure, shortened: (§1)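 TR-FRET in 25 mM HEPES pH 7.3, 100 mM NaCl, 5 mM MgCl2, 0.1% BSA, 0.002% Tween20 with 25 μM Cyclophilin A, 12.5 nM His6-Ras-GMPPNP, 50 nM GST-BRAF RBD; compound 10-point 3-fold series from 30 μM. After 3 h at 25 °C, Eu anti-His/APC anti-GST added for 1.5 h; IC50 from ratio decrease versus DMSO.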

KRAS G12S = KRAS G12S (Homo sapiens, UniProt P01116+P62937, G12S); conditions: with Cyclophilin A
Procedure, shortened: as §1

KRAS G12V = KRAS G12V (Homo sapiens, UniProt P01116+P62937, G12V); conditions: with Cyclophilin A
Procedure, shortened: as §1

KRAS G13C = KRAS G13C (Homo sapiens, UniProt P01116+P62937, G13C); conditions: with Cyclophilin A
Procedure, shortened: as §1

KRAS G13D = KRAS G13D (Homo sapiens, UniProt P01116+P62937, G13D); conditions: with Cyclophilin A
Procedure, shortened: as §1

KRAS Q61H = KRAS Q61H (Homo sapiens, UniProt P01116+P62937, Q61H)
Procedure, shortened: as §1

KRAS WT = KRAS WT (Homo sapiens, UniProt P01116+P62937); conditions: with Cyclophilin A
Procedure, shortened: as §1

NRAS G12C = NRAS G12C (Homo sapiens, UniProt P01111+P62937, G12C)
Procedure, shortened: as §1

NRAS Q61K = NRAS Q61K (Homo sapiens, UniProt P01111+P62937, Q61K)
Procedure, shortened: as §1

NRAS Q61R = NRAS Q61R (Homo sapiens, UniProt P01111+P62937, Q61R)
Procedure, shortened: as §1

NRAS WT = NRAS WT (Homo sapiens, UniProt P01111+P62937)
Procedure, shortened: as §1

KRAS G12C = KRAS G12C (Homo sapiens, UniProt P01116+P62937, G12C); conditions: with Cyclophilin A
Procedure, shortened: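 His6-K-Ras G12C-GMPPNP (12.5 nM), GST-BRAF RBD (50 nM) and tagless Cyclophilin A (25 μM) incubated 3 h at 25 °C with compound (10-point 3-fold series from 30 μM), pH 7.3 HEPES buffer. Anti-His Eu/anti-GST APC added for 1.5 h; decreased TR-FRET ratio vs DMSO gives IC50.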

[1] = KRAS G12D FRET data IC50, Ras-Raf disruption
[2] = KRAS G12S FRET data IC50, Ras-Raf disruption
[3] = KRAS G12V FRET data IC50, Ras-Raf disruption
[4] = KRAS G13C FRET data IC50, Ras-Raf disruption
[5] = KRAS G13D FRET data IC50, Ras-Raf disruption
[6] = KRAS WT FRET data IC50, Ras-Raf disruption
[7] = NRAS G12C FRET data IC50, NRAS G12C
[8] = KRAS G12C FRET data IC50, Ras-Raf disruption
[9] = Ras-Raf disruption, read-out: KRAS G12D FRET data IC50
[10] = Ras-Raf disruption, read-out: KRAS G12S FRET data IC50
[11] = Ras-Raf disruption, read-out: KRAS G12V FRET data IC50
[12] = Ras-Raf disruption, read-out: KRAS G13C FRET data IC50
[13] = Ras-Raf disruption, read-out: KRAS G13D FRET data IC50
[14] = KRAS Q61H, read-out: KRAS Q61H FRET data IC50
[15] = Ras-Raf disruption, read-out: KRAS WT FRET data IC50
[16] = NRAS G12C, read-out: NRAS G12C FRET data IC50
[17] = NRAS Q61K, read-out: NRAS Q61K FRET data IC50
[18] = NRAS Q61R, read-out: NRAS Q61R FRET data IC50
[19] = NRAS WT, read-out: NRAS WT FRET data IC50
[20] = Ras-Raf disruption, read-out: KRAS G12C FRET data IC50

Chain of NRAS G12C (P01111 whole entry G12C): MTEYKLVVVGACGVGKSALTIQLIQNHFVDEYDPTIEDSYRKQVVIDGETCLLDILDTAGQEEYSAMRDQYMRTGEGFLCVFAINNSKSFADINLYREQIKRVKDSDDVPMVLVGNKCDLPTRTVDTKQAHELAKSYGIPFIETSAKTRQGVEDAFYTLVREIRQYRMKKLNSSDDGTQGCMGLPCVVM
Chain of NRAS G12C (P62937 whole entry): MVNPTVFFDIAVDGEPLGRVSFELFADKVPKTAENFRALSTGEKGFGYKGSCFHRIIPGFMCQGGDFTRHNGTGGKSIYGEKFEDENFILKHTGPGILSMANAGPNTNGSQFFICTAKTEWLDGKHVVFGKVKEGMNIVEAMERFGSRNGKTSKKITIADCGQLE
Chain of KRAS G13D (P01116 1-169 isoform P01116-2 G13D limits assumed): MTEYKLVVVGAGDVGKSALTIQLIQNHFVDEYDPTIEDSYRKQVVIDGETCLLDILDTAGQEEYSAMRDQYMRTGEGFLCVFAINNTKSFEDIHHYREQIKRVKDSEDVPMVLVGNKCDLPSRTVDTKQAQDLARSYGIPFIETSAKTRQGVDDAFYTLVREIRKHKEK
Chain of KRAS G13D (P62937 whole entry): as the sequence (P62937 whole entry) above
Chain of NRAS Q61R (P01111 whole entry Q61R): as the sequence (P01111 whole entry G12C) above, with C12G, Q61R counted along it
Chain of NRAS Q61R (P62937 whole entry): as the sequence (P62937 whole entry) above
Chain of KRAS WT (P01116 1-169 isoform P01116-2 limits assumed): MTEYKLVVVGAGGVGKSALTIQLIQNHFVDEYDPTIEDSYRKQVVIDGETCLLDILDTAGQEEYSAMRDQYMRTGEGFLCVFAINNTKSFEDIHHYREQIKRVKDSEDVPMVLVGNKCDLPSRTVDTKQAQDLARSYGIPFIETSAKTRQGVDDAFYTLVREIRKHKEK
Chain of KRAS WT (P62937 whole entry): as the sequence (P62937 whole entry) above
Chain of KRAS G12V (P01116 1-169 isoform P01116-2 G12V limits assumed): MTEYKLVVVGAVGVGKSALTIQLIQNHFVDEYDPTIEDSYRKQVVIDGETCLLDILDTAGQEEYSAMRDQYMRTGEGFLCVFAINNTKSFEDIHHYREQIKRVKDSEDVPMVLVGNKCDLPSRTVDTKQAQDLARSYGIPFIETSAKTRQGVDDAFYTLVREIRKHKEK
Chain of KRAS G12V (P62937 whole entry): as the sequence (P62937 whole entry) above
Chain of KRAS G12C (P01116 1-169 isoform P01116-2 G12C limits assumed): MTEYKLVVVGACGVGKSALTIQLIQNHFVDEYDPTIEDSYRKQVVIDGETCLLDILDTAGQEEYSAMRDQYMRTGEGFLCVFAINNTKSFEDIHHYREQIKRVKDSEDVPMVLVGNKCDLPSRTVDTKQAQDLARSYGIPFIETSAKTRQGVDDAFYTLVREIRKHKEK
Chain of KRAS G12C (P62937 whole entry): as the sequence (P62937 whole entry) above
Chain of NRAS WT (P01111 whole entry): as the sequence (P01111 whole entry G12C) above, with C12G counted along it
Chain of NRAS WT (P62937 whole entry): as the sequence (P62937 whole entry) above
Chain of KRAS G12S (P01116 1-169 isoform P01116-2 G12S limits assumed): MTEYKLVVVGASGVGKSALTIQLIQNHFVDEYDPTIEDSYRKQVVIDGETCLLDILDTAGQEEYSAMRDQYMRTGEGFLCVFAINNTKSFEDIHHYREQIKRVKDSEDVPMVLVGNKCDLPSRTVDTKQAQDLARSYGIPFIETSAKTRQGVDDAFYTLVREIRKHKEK
Chain of KRAS G12S (P62937 whole entry): as the sequence (P62937 whole entry) above
Chain of KRAS Q61H (P01116 1-169 isoform P01116-2 Q61H limits assumed): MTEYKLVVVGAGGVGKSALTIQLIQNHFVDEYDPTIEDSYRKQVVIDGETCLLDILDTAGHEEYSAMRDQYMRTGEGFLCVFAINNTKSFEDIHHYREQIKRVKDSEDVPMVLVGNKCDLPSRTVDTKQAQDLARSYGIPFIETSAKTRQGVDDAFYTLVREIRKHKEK
Chain of KRAS Q61H (P62937 whole entry): as the sequence (P62937 whole entry) above
Chain of NRAS Q61K (P01111 whole entry Q61K): as the sequence (P01111 whole entry G12C) above, with C12G, Q61K counted along it
Chain of NRAS Q61K (P62937 whole entry): as the sequence (P62937 whole entry) above
Chain of KRAS G12D (P01116 1-169 isoform P01116-2 G12D limits assumed): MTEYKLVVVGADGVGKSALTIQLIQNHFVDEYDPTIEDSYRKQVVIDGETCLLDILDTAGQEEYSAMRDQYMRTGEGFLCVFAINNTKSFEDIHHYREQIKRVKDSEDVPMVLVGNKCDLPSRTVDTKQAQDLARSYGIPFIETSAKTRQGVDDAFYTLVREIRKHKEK
Chain of KRAS G12D (P62937 whole entry): as the sequence (P62937 whole entry) above
Chain of KRAS G13C (P01116 1-169 isoform P01116-2 G13C limits assumed): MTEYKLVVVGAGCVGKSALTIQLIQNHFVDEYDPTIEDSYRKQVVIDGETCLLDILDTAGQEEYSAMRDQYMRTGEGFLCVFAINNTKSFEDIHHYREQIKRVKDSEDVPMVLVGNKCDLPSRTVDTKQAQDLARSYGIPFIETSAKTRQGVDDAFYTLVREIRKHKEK
Chain of KRAS G13C (P62937 whole entry): as the sequence (P62937 whole entry) above

`CCn1c(-c2cccnc2[C@H](C)OC)c2c3cc(ccc31)-c1cc(O)cc(c1)C[C@H](NC(=O)[C@H](C(C)C)N(C)C(=O)C13CCC(CC1)N3C(=O)[C@H]1CN1)C(=O)N1CCC[C@H](N1)C(=O)OCC(C)(C)C2` [Example 202] was tested, and the IC50 (KRAS G12D; [1]) was 100 to 1000 nM, the IC50 (KRAS G12S; [2]) was 100 to 1000 nM and the IC50 (KRAS G12V; [3]) was 100 to 1000 nM. It also gave an IC50 (KRAS G13C; [4]) of 100 to 1000 nM, an IC50 (KRAS G13D; [5]) of 100 to 1000 nM and an IC50 (KRAS Q61H) of 10 to 100 nM. The IC50 (KRAS WT; [6]) was 100 to 1000 nM, the IC50 (NRAS G12C; [7]) was 10 to 100 nM and the IC50 (NRAS Q61K) was 100 to 1000 nM. The IC50 (NRAS Q61R) was 100 to 1000 nM, the IC50 (NRAS WT) was 100 to 1000 nM and the IC50 (KRAS G12C; [8]) was 10 to 100 nM.

Molecule `CCn1c(-c2cccnc2[C@H](C)OC)c2c3cc(ccc31)-c1csc(n1)C[C@H](NC(=O)[C@H](C1CCCC1)N(C)C(=O)CN(C)C(=O)[C@@H]1N[C@@H]1C1CC1)C(=O)N1CCC[C@H](N1)C(=O)OCC(C)(C)C2` [Example 210] has an IC50 (KRAS G12D; [1]) of 1000 to 10000 nM, an IC50 (KRAS G12S; [2]) of 1000 to 10000 nM and an IC50 (KRAS G12V; [3]) of 1000 to 10000 nM. It also gave an IC50 (KRAS G13C; [4]) of 1000 to 10000 nM, an IC50 (KRAS G13D; [5]) of 1000 to 10000 nM and an IC50 (KRAS Q61H) of 100 to 1000 nM. The IC50 (KRAS WT; [6]) was 1000 to 10000 nM, the IC50 (NRAS G12C; [7]) was 100 to 1000 nM and the IC50 (NRAS Q61K) was 1000 to 10000 nM. It also gave an IC50 (NRAS Q61R) of 1000 to 10000 nM, an IC50 (NRAS WT) of 1000 to 10000 nM and an IC50 (KRAS G12C; [8]) of 100 to 1000 nM.

Work on `CCn1c(-c2cccnc2[C@H](C)OC)c2c3cc(ccc31)-c1cc(O)cc(c1)C[C@H](NC(=O)[C@H](C(C)C)N1CC[C@H](NC(=O)[C@H]3CN3)C1=O)C(=O)N1CCC[C@H](N1)C(=O)OCC(C)(C)C2` [Example 213] yielded an IC50 (KRAS G12D; [1]) of 1000 to 10000 nM, an IC50 (KRAS G12S; [2]) of 100 to 1000 nM and an IC50 (KRAS G12V; [3]) of 100 to 1000 nM. The IC50 (KRAS G13C; [4]) was 10 to 100 nM, the IC50 (KRAS G13D; [5]) was 100 to 1000 nM and the IC50 (KRAS Q61H) was 10 to 100 nM. For the same molecule, the IC50 (KRAS WT; [6]) was 10 to 100 nM, the IC50 (NRAS G12C; [7]) was 10 to 100 nM and the IC50 (NRAS Q61K) was 100 to 1000 nM. It also gave an IC50 (NRAS Q61R) of 100 to 1000 nM, an IC50 (NRAS WT) of 10 to 100 nM and an IC50 (KRAS G12C; [8]) of 10 to 100 nM.

In the case of `CCn1c(-c2cccnc2[C@H](C)OC)c2c3cc(ccc31)-c1csc(n1)C[C@H](NC(=O)[C@H](C(C)C)N(C)C(=O)N(C)C1CN(C(=O)[C@H]3CN3)C1)C(=O)N1CCC[C@H](N1)C(=O)OCC(C)(C)C2` [Example 220], the IC50 (KRAS G12D; [9]) is reported as 1000 to 10000 nM, the IC50 (KRAS G12S; [10]) is reported as 100 to 1000 nM and the IC50 (KRAS G12V; [11]) is reported as 100 to 1000 nM. The IC50 (KRAS G13C; [12]) was 100 to 1000 nM, the IC50 (KRAS G13D; [13]) was 100 to 1000 nM and the IC50 (KRAS Q61H; [14]) was 10 to 100 nM. For the same molecule, the IC50 (KRAS WT; [15]) was 100 to 1000 nM, the IC50 (NRAS G12C; [16]) was 100 to 1000 nM and the IC50 (NRAS Q61K; [17]) was 10 to 100 nM. It also gave an IC50 (NRAS Q61R; [18]) of 100 to 1000 nM, an IC50 (NRAS WT; [19]) of 100 to 1000 nM and an IC50 (KRAS G12C; [20]) of 10 to 100 nM.

In the case of `CCn1c(-c2cccnc2[C@H](C)OC)c2c3cc(ccc31)-c1csc(n1)C[C@H](NC(=O)[C@H](C(C)C)N(C)C(=O)N(C)C1CN(C(=O)[C@@H]3CN3)C1)C(=O)N1CCC[C@H](N1)C(=O)OCC(C)(C)C2` [Example 221], the IC50 (KRAS G12D; [9]) is reported as 1000 to 10000 nM, the IC50 (KRAS G12S; [10]) is reported as 100 to 1000 nM and the IC50 (KRAS G12V; [11]) is reported as 100 to 1000 nM. The IC50 (KRAS G13C; [12]) was 100 to 1000 nM, the IC50 (KRAS G13D; [13]) was 100 to 1000 nM and the IC50 (KRAS Q61H; [14]) was 100 to 1000 nM. For the same molecule, the IC50 (KRAS WT; [15]) was 100 to 1000 nM, the IC50 (NRAS G12C; [16]) was 100 to 1000 nM and the IC50 (NRAS Q61K; [17]) was 100 to 1000 nM. For the same molecule, the IC50 (NRAS Q61R; [18]) was 100 to 1000 nM, the IC50 (NRAS WT; [19]) was 100 to 1000 nM and the IC50 (KRAS G12C; [20]) was 100 to 1000 nM.

Molecule `CCn1c(-c2cc(C3CCN(C)CC3)cnc2[C@H](C)OC)c2c3cc(ccc31)-c1cc(O)cc(c1)C[C@H](NC(=O)[C@H](C1CCCC1)N(C)C(=O)CN(C)C(=O)[C@H]1CN1)C(=O)N1CCC[C@H](N1)C(=O)OCC(C)(C)C2` [Example 230] has an IC50 (KRAS G12D; [1]) of 10 to 100 nM, an IC50 (KRAS G12S; [2]) of 10 to 100 nM and an IC50 (KRAS G12V; [3]) of 10 to 100 nM. For the same molecule, the IC50 (KRAS G13C; [4]) was less than 10 nM, the IC50 (KRAS G13D; [5]) was 10 to 100 nM and the IC50 (KRAS Q61H) was less than 10 nM. The IC50 (KRAS WT; [6]) was 10 to 100 nM, the IC50 (NRAS G12C; [7]) was less than 10 nM and the IC50 (NRAS Q61K) was 100 to 1000 nM. It also gave an IC50 (NRAS Q61R) of 10 to 100 nM, an IC50 (NRAS WT) of 10 to 100 nM and an IC50 (KRAS G12C; [8]) of less than 10 nM.

For `CCn1c(-c2cccnc2[C@H](C)OC)c2c3cc(ccc31)-c1csc(n1)C[C@H](NC(=O)[C@H](C(C)C)N(C)C(=O)N1CC[C@H]1CN(C)C(=O)[C@@H]1CN1)C(=O)N1CCC[C@H](N1)C(=O)OCC(C)(C)C2` [Example 235], the IC50 (KRAS G12D; [9]) was 1000 to 10000 nM, the IC50 (KRAS G12S; [10]) was 1000 to 10000 nM and the IC50 (KRAS G12V; [11]) was 1000 to 10000 nM. For the same molecule, the IC50 (KRAS G13C; [12]) was 1000 to 10000 nM, the IC50 (KRAS G13D; [13]) was 1000 to 10000 nM and the IC50 (KRAS Q61H; [14]) was 100 to 1000 nM. The IC50 (KRAS WT; [15]) was 1000 to 10000 nM, the IC50 (NRAS G12C; [16]) was 100 to 1000 nM and the IC50 (NRAS Q61K; [17]) was 100 to 1000 nM. The IC50 (NRAS Q61R; [18]) was 1000 to 10000 nM, the IC50 (NRAS WT; [19]) was 1000 to 10000 nM and the IC50 (KRAS G12C; [20]) was 100 to 1000 nM.
